Reference: publication PMC9939319 (Acta Pharmaceutica Sinica. B, 2022)

Target: TRPA1 (Homo sapiens, UniProt O75762)
Experiment: calcium flux in TRPA1-overexpressing HEK-293 cells
Assay type: cell-based

TRPA1, sequence (O75762 whole entry): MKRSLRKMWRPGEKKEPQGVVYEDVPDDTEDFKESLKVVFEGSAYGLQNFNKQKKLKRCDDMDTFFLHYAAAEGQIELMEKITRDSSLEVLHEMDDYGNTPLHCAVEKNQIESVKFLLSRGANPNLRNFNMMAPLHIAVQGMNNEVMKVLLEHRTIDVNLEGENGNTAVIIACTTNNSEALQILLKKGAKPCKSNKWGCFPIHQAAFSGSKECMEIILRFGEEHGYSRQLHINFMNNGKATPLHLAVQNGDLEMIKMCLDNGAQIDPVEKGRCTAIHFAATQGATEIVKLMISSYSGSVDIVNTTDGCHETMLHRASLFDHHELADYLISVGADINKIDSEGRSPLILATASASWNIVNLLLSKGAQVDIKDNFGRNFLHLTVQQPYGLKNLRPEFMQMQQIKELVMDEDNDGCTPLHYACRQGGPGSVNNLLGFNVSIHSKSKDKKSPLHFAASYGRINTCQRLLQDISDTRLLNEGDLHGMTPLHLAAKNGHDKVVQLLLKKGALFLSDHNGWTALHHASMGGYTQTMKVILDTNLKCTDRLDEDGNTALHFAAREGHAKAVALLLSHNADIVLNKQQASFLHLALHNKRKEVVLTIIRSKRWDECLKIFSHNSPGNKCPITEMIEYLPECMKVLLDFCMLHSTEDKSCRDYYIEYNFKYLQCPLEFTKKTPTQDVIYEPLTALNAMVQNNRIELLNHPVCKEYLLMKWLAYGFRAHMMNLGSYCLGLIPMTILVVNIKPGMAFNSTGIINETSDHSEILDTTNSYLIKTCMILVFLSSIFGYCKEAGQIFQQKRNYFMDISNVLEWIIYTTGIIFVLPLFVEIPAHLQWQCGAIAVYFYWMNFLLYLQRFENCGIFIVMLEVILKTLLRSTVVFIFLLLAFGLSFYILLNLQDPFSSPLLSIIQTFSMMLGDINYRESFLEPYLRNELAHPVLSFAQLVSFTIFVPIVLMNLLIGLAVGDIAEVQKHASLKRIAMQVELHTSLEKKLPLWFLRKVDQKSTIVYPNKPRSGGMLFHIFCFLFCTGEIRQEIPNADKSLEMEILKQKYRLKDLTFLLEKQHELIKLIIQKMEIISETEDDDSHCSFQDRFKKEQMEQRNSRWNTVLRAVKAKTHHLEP

Q: Which EC50 does the source give for CC(C)(C)c1ccc(O)c(C(C)(C)C)c1 [2,4-DTBP] here?
A: Its EC50 is 225 µM.
